Blank lines part the entries; values can stand above or below the compound they belong to.
How the values were obtained:
Phosphodiesterase 3 [1] = molecular target: T1, Phosphodiesterase 3 (Homo sapiens, UniProt Q14432+Q13370); test: Inhibition of low Km cyclic AMP phosphodiesterase PDE III of canine ventricle; type: protein assay, Canis lupus familiaris; settings: target entry is the homologue from another species
Phosphodiesterase 1 [2] = molecular target: T2, Phosphodiesterase 1 (Homo sapiens, UniProt P54750+Q01064+Q14123); test: Binding affinity for [Ca(2+)]/calmodulin dependent phosphodiesterase PDE 1 of human brain
Phosphodiesterase 3 [3] = molecular target: T1, Phosphodiesterase 3; test: Binding affinity for low Km cAMP phosphodiesterase PDE III of human platelets
[4] = molecular target: T3, cGMP-dependent 3',5'-cyclic phosphodiesterase (Homo sapiens, UniProt O00408); test: Percent inhibition of cyclic GMP sensitive phosphodiesterase PDE 2 of guinea pig ventricle; settings: Cavia porcellus; target entry is the homologue from another species; concentration not given here
Phosphodiesterase 1 [5] = molecular target: T2, Phosphodiesterase 1; test: Percent inhibition of [Ca(2+)]/calmodulin dependent phosphodiesterase PDE 1 of guinea pig ventricle; type: protein assay; settings: Cavia porcellus; target entry is the homologue from another species; concentration not given here
Phosphodiesterase 3 [6] = molecular target: T1, Phosphodiesterase 3; test: Percent inhibition of low Km cyclic cAMP phosphodiesterase PDE III of guinea pig ventricle; type: protein assay; settings: Cavia porcellus; target entry is the homologue from another species; concentration not given here
[7] = molecular target: T3, cGMP-dependent 3',5'-cyclic phosphodiesterase; test: Inhibition of cyclic GMP sensitive phosphodiesterase PDE 2 of guinea pig ventricle; design: species or system Cavia porcellus; settings: target entry is the homologue from another species
Phosphodiesterase 1 [8] = molecular target: T2, Phosphodiesterase 1; test: Inhibition of [Ca(2+)]/calmodulin dependent phosphodiesterase PDE 1 of rabbit renal cortex; settings: Oryctolagus cuniculus; target entry is the homologue from another species
Phosphodiesterase 1 [9] = molecular target: T2, Phosphodiesterase 1; test: Binding affinity for [Ca(2+)]/calmodulin dependent phosphodiesterase PDE 1 of sheep lung; type: protein assay, Ovis aries; settings: target entry is the homologue from another species
Phosphodiesterase 3 [10] = molecular target: T1, Phosphodiesterase 3; test: Binding affinity for low Km cAMP phosphodiesterase PDE III of sheep lung; type: protein assay, Ovis aries; settings: target entry is the homologue from another species
Phosphodiesterase 1 [11] = molecular target: T2, Phosphodiesterase 1; test: Inhibition of [Ca(2+)]/calmodulin dependent phosphodiesterase PDE 1 of human brain
Phosphodiesterase 3 [12] = molecular target: T1, Phosphodiesterase 3; test: Inhibition of low Km cAMP phosphodiesterase PDE III of human platelets
Phosphodiesterase 3 [13] = molecular target: T1, Phosphodiesterase 3; test: Inhibition of low Km cyclic cAMP phosphodiesterase PDE III of guinea pig ventricle; type: protein assay, Cavia porcellus; settings: target entry is the homologue from another species
[14] = molecular target: T3, cGMP-dependent 3',5'-cyclic phosphodiesterase; test: Inhibition of cyclic GMP sensitive phosphodiesterase PDE 2 of human lung
Phosphodiesterase 1 [15] = molecular target: T2, Phosphodiesterase 1; test: Inhibition of [Ca(2+)]/calmodulin dependent phosphodiesterase PDE 1 of human lung; type: protein assay
Phosphodiesterase 1 [16] = molecular target: T2, Phosphodiesterase 1; test: Inhibition of [Ca(2+)]/calmodulin dependent phosphodiesterase PDE 1 of guinea pig ventricle; type: protein assay, Cavia porcellus; settings: target entry is the homologue from another species
Phosphodiesterase 3 [17] = molecular target: T1, Phosphodiesterase 3; test: Binding affinity for low Km cAMP phosphodiesterase PDE III of sheep lung; settings: target entry is the homologue from another species

T3 sequence (O00408 whole entry): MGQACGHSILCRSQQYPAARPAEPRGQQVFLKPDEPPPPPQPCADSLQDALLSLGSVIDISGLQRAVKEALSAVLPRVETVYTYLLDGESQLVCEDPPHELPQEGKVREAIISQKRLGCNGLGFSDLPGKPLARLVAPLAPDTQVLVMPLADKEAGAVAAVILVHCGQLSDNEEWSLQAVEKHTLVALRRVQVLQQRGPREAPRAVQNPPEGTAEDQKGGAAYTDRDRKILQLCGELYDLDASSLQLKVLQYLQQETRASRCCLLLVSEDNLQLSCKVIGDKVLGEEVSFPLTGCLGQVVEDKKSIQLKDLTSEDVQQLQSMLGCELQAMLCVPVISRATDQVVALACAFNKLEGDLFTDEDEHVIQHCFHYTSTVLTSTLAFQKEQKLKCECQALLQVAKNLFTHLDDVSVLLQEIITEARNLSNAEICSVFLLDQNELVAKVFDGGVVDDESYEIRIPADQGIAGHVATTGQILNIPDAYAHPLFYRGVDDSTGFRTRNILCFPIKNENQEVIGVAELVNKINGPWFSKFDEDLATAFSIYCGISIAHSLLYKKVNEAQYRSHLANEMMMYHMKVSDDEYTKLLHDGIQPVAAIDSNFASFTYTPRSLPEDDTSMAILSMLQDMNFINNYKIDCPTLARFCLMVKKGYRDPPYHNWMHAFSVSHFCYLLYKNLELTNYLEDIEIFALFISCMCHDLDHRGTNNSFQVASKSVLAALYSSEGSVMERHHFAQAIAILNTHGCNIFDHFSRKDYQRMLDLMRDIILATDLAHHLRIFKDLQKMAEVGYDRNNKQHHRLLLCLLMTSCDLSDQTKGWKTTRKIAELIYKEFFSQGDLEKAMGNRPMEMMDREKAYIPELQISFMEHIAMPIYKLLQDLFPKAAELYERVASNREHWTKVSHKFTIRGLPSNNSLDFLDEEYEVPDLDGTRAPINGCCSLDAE

IC50 (Phosphodiesterase 3 [1]): 8.6 µM
Compound: CCc1[nH]c(=O)[nH]c1C(=O)c1ccncc1 [PIROXIMONE]

Ki (Phosphodiesterase 1 [2]): 10 µM
Ki (Phosphodiesterase 3 [3]): 1.4 µM
Compound: CCOC(=O)c1c(C)cc2c(CO)n[nH]c(=O)c2c1C [OXAGRELATE]

inhibition [4]: 6%
inhibition (Phosphodiesterase 1 [5]): 15%
inhibition (Phosphodiesterase 3 [6]): 97%
Compound: CC1CC(=O)NN=C1c1ccc2c(c1)CCC(=O)N2C (centres undefined)

IC50 [7]: 200 µM
Compound: COc1cc([S+](C)[O-])ccc1-c1nc2ncccc2[nH]1 (centres undefined) [SULMAZOLE]

IC25 (Phosphodiesterase 1 [8]): 1400 µM
Compound: COc1ccc(C2CNC(=O)C2)cc1OC1CCCC1 (centres undefined)

Ki (Phosphodiesterase 1 [9]): 60 µM
Ki (Phosphodiesterase 3 [10]): 12 µM
Compound: CCOC(=O)c1cnc2c(cnn2CC)c1NN=C(C)C [ETAZOLATE]

Ki (Phosphodiesterase 3 [3]): 16 µM
Compound: Clc1cccc(Nc2nnc(-c3ccccc3)c3ccccc23)c1

IC50 (Phosphodiesterase 1 [11]): > 1000 µM
IC50 (Phosphodiesterase 3 [12]): 0.19 µM
Compound: O=C1CCc2cc(OCCCCc3nnnn3C3CCCCC3)ccc2N1 [CILOSTAZOL]

IC50 (Phosphodiesterase 1 [11]): > 1000 µM
IC50 (Phosphodiesterase 3 [12]): 0.073 µM
Compound: CCC(O)CN(C(=O)CCCCOc1ccc2c(c1)CCC(=O)N2)c1ccccc1 (centres undefined)

IC50 (Phosphodiesterase 3 [13]): 43 µM
Compound: OCCN(CCO)c1nc(N2CCCCC2)c2nc(N(CCO)CCO)nc(N3CCCCC3)c2n1 [DIPYRIDAMOLE]

IC50 [14]: 80 µM
IC50 (Phosphodiesterase 1 [15]): 16 µM
Compound: CCCCc1cc2c(=O)cc(C(=O)O)[nH]c2c2c(=O)cc(C(=O)O)[nH]c12 [BUFROLIN]

Compound: Cn1c(=O)c2nc[nH]c2n(C)c1=O.O [THEOPHYLLINE]
IC50 [7]: 210 µM
IC50 (Phosphodiesterase 1 [16]): 320 µM

Ki (Phosphodiesterase 1 [2]): 4 µM
Ki (Phosphodiesterase 3 [3]): 270 µM
Compound: CCOC(CN1CCN(S(=O)(=O)c2ccc3ncnc(N(C)c4ccccc4)c3c2)CC1)c1ccccc1 (centres undefined)

IC50 [14]: 12 µM
IC50 (Phosphodiesterase 1 [15]): 3.4 µM
Compound: CC(C)Cn1c(=O)n(C)c(=O)c2nc[nH]c21 [ISOBUTYLMETHYLXANTHINE]

IC50 [7]: 520 µM
IC50 (Phosphodiesterase 1 [16]): > 1000 µM
Compound: CSc1ccc(C(=O)c2[nH]c(=O)[nH]c2C)cc1 [ENOXIMONE]

IC50 [7]: 57 µM
IC50 (Phosphodiesterase 1 [16]): 265 µM
IC50 (Phosphodiesterase 3 [13]): 390 µM
Compound: COc1ccc(-c2nc3ccc[nH]c-3n2)c(OC)c1

inhibition [4]: 0%
inhibition (Phosphodiesterase 1 [5]): 5%
inhibition (Phosphodiesterase 3 [6]): 92%
Compound: CC(Cl)C(=O)Nc1ccc(C2=NNC(=O)CC2C)cc1 (centres undefined)

IC50 [7]: 700 µM
IC50 (Phosphodiesterase 1 [16]): > 1000 µM
Compound: Nc1cc(-c2ccncc2)c[nH]c1=O [INAMRINONE]

IC50 [14]: 390 µM
IC50 (Phosphodiesterase 1 [15]): 250 µM
Compound: CCCCOc1cc(CC2CNC(=O)N2)ccc1OC (centres undefined) [RO-201724]

Ki (Phosphodiesterase 1 [2]): 22 µM
Compound: CN(C(=O)CCCOc1ccc2[nH]c(=O)ccc2c1)C1CCCCC1 [CILOSTAMIDE]

Ki (Phosphodiesterase 1 [9]): 717 µM
Ki (Phosphodiesterase 3 [17]): 217 µM
Compound: CCCc1nc(C)cn2c(NC(C)=O)nnc12

Reference: ChEMBL document CHEMBL1123112, “A new generation of phosphodiesterase inhibitors: multiple molecular forms of phosphodiesterase and the potential for drug selectivity” (J Med Chem, 1985)
